Legend:
Assay type in all cases: in vivo
[1] = tested on: Ipomoea hederacea (IPOHE); test: Pre-emergence Test (glasshouse, percentage damage to the plant); conditions: 1000 g/ha unless otherwise stated; for percentage damage to the plant, IPOHE: five-point scale; for percentage damage to the plant, IPOHE (five-point scale): Ipomoea hederacea
[2] = tested on: Abutilon theophrasti (ABUTH); test: as above; conditions: 1000 g/ha unless otherwise stated; for percentage damage to the plant, ABUTH: five-point scale; for percentage damage to the plant, ABUTH (five-point scale): Abutilon theophrasti
[3] = tested on: Abutilon theophrasti (ABUTH); test: Post-emergence Test (glasshouse, percentage damage to the plant); conditions: 1000 g/ha unless otherwise stated, evaluated after 13 days; for Post-emergence Test ABUTH, percentage damage to the plant (five-point scale): post-emergence spray; for ABUTH, percentage damage caused to the plant (five-point scale): post-emergence
In short: (§1)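 After sowing in standard soil, pots were kept at 24/16 °C (day/night), 14 h light and 65% humidity. They were sprayed at 1000 g/ha unless otherwise stated, watered twice daily, and assessed for percentage damage at 13 days on a 1–5 scale.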

Zea mays (ZEAMX) [4] = test: as above; conditions: 1000 g/ha unless otherwise stated, evaluated after 13 days; for Post-emergence Test ZEAMX, percentage damage to the plant (five-point scale): post-emergence spray; for ZEAMX, percentage damage caused to the plant (five-point scale): post-emergence
In short: (§2)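 Seeds sown in standard soil in a glasshouse (24/16 °C day/night, 14 h light, 65% humidity), then sprayed with an aqueous solution of the compound formulated in acetone/water 50:50 with 0.5% Tween 20 at 1000 g/ha unless otherwise stated. Percentage damage was scored after 13 days on a five-point scale (5=81-100%; 1=0-20%).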

[5] = tested on: Ipomoea hederacea (IPOHE); test: as above; conditions: 1000 g/ha unless otherwise stated, evaluated after 13 days; for Post-emergence Test IPOHE, percentage damage to the plant (five-point scale): post-emergence spray; for IPOHE, percentage damage caused to the plant (five-point scale): post-emergence
In short: as §2

[6] = tested on: Amaranthus retoflexus (AMARE); test: as above; conditions: 1000 g/ha unless otherwise stated, evaluated after 13 days; for Post-emergence Test AMARE, percentage damage to the plant (five-point scale): post-emergence spray; for AMARE, percentage damage caused to the plant (five-point scale): post-emergence
In short: as §1

Setaria faberi (SETFA) [7] = test: as above; conditions: 1000 g/ha unless otherwise stated, evaluated after 13 days; for Post-emergence Test SETFA, percentage damage to the plant (five-point scale): post-emergence spray; for SETFA, percentage damage caused to the plant (five-point scale): post-emergence
In short: as §2

[8] = tested on: Echinochloa crus-galli (ECHCG); test: as above; conditions: post-emergence spray, 1000 g/ha unless otherwise stated, evaluated after 13 days
In short: as §1

[9] = tested on: Amaranthus retoflexus (AMARE); test: Pre-emergence Test (glasshouse, percentage damage to the plant); conditions: 1000 g/ha unless otherwise stated; for percentage damage to the plant, AMARE: five-point scale; for percentage damage to the plant, AMARE (five-point scale): Amaranthus retoflexus
Zea mays (ZEAMX) [10] = test: as above; conditions: 1000 g/ha unless otherwise stated; for percentage damage to the plant, ZEAMX: five-point scale; for percentage damage to the plant, ZEAMX (five-point scale): Zea mays
[11] = tested on: Echinochloa crus-galli (ECHCG); test: as above; conditions: 1000 g/ha unless otherwise stated; for percentage damage to the plant, ECHCG: five-point scale; for percentage damage to the plant, ECHCG (five-point scale): Echinochloa crus-galli
Setaria faberi (SETFA) [12] = test: as above; conditions: 1000 g/ha unless otherwise stated; for percentage damage to the plant, SETFA: five-point scale; for percentage damage to the plant, SETFA (five-point scale): Setaria faberi

SMILES	percentage damage to the plant, IPOHE [1]	percentage damage to the plant, ABUTH [2]	Post-emergence Test ABUTH, percentage damage to the plant (five-point scale) [3]	Post-emergence Test ZEAMX, percentage damage to the plant (five-point scale) (Zea mays (ZEAMX) [4])	Post-emergence Test IPOHE, percentage damage to the plant (five-point scale) [5]	Post-emergence Test AMARE, percentage damage to the plant (five-point scale) [6]	Post-emergence Test SETFA, percentage damage to the plant (five-point scale) (Setaria faberi (SETFA) [7])	Post-emergence Test ECHCG, percentage damage to the plant (five-point scale) [8]	percentage damage to the plant, AMARE [9]	percentage damage to the plant, ZEAMX (Zea mays (ZEAMX) [10])	percentage damage to the plant, ECHCG [11]	percentage damage to the plant, SETFA (Setaria faberi (SETFA) [12])	percentage damage to the plant, IPOHE (five-point scale) [1]	percentage damage to the plant, ABUTH (five-point scale) [2]	ABUTH, percentage damage caused to the plant (five-point scale) [3]	ZEAMX, percentage damage caused to the plant (five-point scale) (Zea mays (ZEAMX) [4])	IPOHE, percentage damage caused to the plant (five-point scale) [5]	AMARE, percentage damage caused to the plant (five-point scale) [6]	SETFA, percentage damage caused to the plant (five-point scale) (Setaria faberi (SETFA) [7])	percentage damage to the plant, AMARE (five-point scale) [9]	also measured
CCn1c(C)c(-c2ccnc(OC)c2)c(=O)c(C(=O)O)c1-c1ccc(Cl)c(Cl)c1 [Compound 53, 2-(3,4-dichlorophenyl)-1-ethyl-5-(2-methoxy-4-pyridyl)-6-methyl-4-oxo-pyridine-3-carboxylic acid]	3 (3=41-60%)	3 (3=41-60%)	4 (4=61-80%)	2 (2=21-40%)	2 (2=21-40%)	3 (3=41-60%)	4 (4=61-80%)	3 (3=41-60%)	1 (1=0-20%)	1 (1=0-20%)	3 (3=41-60%)	4 (4=61-80%)	–	–	–	–	–	–	–	–	–
CCn1c(C)c(-c2ccc(C(C)(C)C)cc2)c(=O)c(C(=O)O)c1-c1ccc(Cl)c(Cl)c1 [Compound 55, 5-(4-tert-butylphenyl)-2-(3,4-dichlorophenyl)-1-ethyl-6-methyl-4-oxo-pyridine-3-carboxylic acid]	1 (1=0-20%)	1 (1=0-20%)	1 (1=0-20%)	1 (1=0-20%)	1 (1=0-20%)	1 (1=0-20%)	1 (1=0-20%)	1 (1=0-20%)	1 (1=0-20%)	1 (1=0-20%)	1 (1=0-20%)	1 (1=0-20%)	–	–	–	–	–	–	–	–	–
CCn1c(C)c(-c2cc(Cl)cc(Cl)c2)c(=O)c(C(=O)O)c1-c1ccc(Cl)c(Cl)c1 [Compound 56, 2-(3,4-dichlorophenyl)-5-(3,5-dichlorophenyl)-1-ethyl-6-methyl-4-oxo-pyridine-3-carboxylic acid]	1 (1=0-20%)	1 (1=0-20%)	1 (1=0-20%)	1 (1=0-20%)	1 (1=0-20%)	1 (1=0-20%)	1 (1=0-20%)	1 (1=0-20%)	1 (1=0-20%)	1 (1=0-20%)	1 (1=0-20%)	1 (1=0-20%)	–	–	–	–	–	–	–	–	–
CCn1c(C)c(-c2ccc(Cl)c(C#N)c2)c(=O)c(C(=O)O)c1-c1ccc(Cl)c(Cl)c1 [Compound 57, 5-(4-chloro-3-cyano-phenyl)-2-(3,4-dichlorophenyl)-1-ethyl-6-methyl-4-oxo-pyridine-3-carboxylic acid]	2 (2=21-40%)	1 (1=0-20%)	3 (3=41-60%)	2 (2=21-40%)	2 (2=21-40%)	4 (4=61-80%)	4 (4=61-80%)	3 (3=41-60%)	3 (3=41-60%)	2 (2=21-40%)	3 (3=41-60%)	4 (4=61-80%)	–	–	–	–	–	–	–	–	–
CCn1c(C)c(-c2ccn(C)c(=O)c2)c(=O)c(C(=O)O)c1-c1ccc(Cl)c(Cl)c1 [Compound 58, 2-(3,4-dichlorophenyl)-1-ethyl-6-methyl-5-(1-methyl-2-oxo-4-pyridyl)-4-oxo-pyridine-3-carboxylic acid]	1 (1=0-20%)	1 (1=0-20%)	1 (1=0-20%)	1 (1=0-20%)	1 (1=0-20%)	1 (1=0-20%)	1 (1=0-20%)	1 (1=0-20%)	1 (1=0-20%)	1 (1=0-20%)	1 (1=0-20%)	1 (1=0-20%)	–	–	–	–	–	–	–	–	–
CCn1c(CCOC)c(-c2ccc(Cl)cc2)c(=O)c(C(=O)OC)c1-c1ccc(Cl)c(Cl)c1 [Compound 202, methyl 5-(4-chlorophenyl)-2-(3,4-dichlorophenyl)-1-ethyl-6-(2-methoxyethyl)-4-oxo-pyridine-3-carboxylate]	–	–	–	–	–	–	–	–	–	–	–	–	0	0	0	1 (1=0-20%)	1 (1=0-20%)	0	0	0	percentage damage to the plant, ZEAMX (five-point scale) (Zea mays (ZEAMX) [10]): 0; percentage damage to the plant, ECHCG (five-point scale) [11]: 0; percentage damage to the plant, SETFA (five-point scale) (Setaria faberi (SETFA) [12]): 0
CCn1c(-c2ccc(Cl)c(Cl)c2)c(C(=O)O)c(=O)c(-c2ccc(Cl)cc2)c1C(F)F [Compound 204, 5-(4-chlorophenyl)-2-(3,4-dichlorophenyl)-6-(difluoromethyl)-1-ethyl-4-oxo-pyridine-3-carboxylic acid]	–	–	–	–	–	–	–	–	–	–	–	–	0	2 (2=21-40%)	5 (5=81-100%)	1 (1=0-20%)	2 (2=21-40%)	5 (5=81-100%)	3 (3=41-60%)	5 (5=81-100%)	percentage damage to the plant, ZEAMX (five-point scale) (Zea mays (ZEAMX) [10]): 0; percentage damage to the plant, ECHCG (five-point scale) [11]: 0; percentage damage to the plant, SETFA (five-point scale) (Setaria faberi (SETFA) [12]): 0
CCn1c(-c2ccc(Cl)c(Cl)c2)c(C(=O)OC)c(=O)c(-c2ccc(Cl)cc2)c1C(F)F [Compound 205, methyl 5-(4-chlorophenyl)-2-(3,4-dichlorophenyl)-6-(difluoromethyl)-1-ethyl-4-oxo-pyridine-3-carboxylate]	–	–	–	–	–	–	–	–	–	–	–	–	0	0	0	0	1 (1=0-20%)	1 (1=0-20%)	0	0	percentage damage to the plant, ZEAMX (five-point scale) (Zea mays (ZEAMX) [10]): 0; percentage damage to the plant, ECHCG (five-point scale) [11]: 0; percentage damage to the plant, SETFA (five-point scale) (Setaria faberi (SETFA) [12]): 0

From patent publication US12660819B2, “Herbicidal derivatives” (SYNGENTA CROP PROTECTION AG, priority 2020, dated 2026)
